Data reported in patent US20220087263A1, “HERBICIDE COMPOSITION AND APPLICATION THEREOF” (SHENYANG SINOCHEM AGROCHEMICALS R&D CO., LTD., priority 2018, published 2022).
Several values for one entry are separate records, joined by “and”; a condition that tells them apart may be missing. Identical values can stand only once.

How the values were obtained:
[1] = system: barnyard grass; experiment: Greenhouse test of weed control effect, combined action evaluated by Gowing method; assay type: in vivo; conditions: single component
Experimental: (§1) Embodiment 1 The synergistic effects of the compound contained with component A and component B is conducted in greenhouse in the present invention, and the component A takes A-3, A-4 and A-5 compounds in the compound table 1 of the general formula I as examples.
(§2) The synergistic effects of the composition on the weeds is defined through greenhouse test.
(§3) A weed culture method is: respectively planting weed seeds of piemarker and barnyard grass quantitatively in a paper cup with a diameter of 7 cm and containing nutrient soil; after planting, covering soil, pressing and watering; and then culturing in a greenhouse. The grass weeds grow to 5-7 leaf stages; the broadleaf weeds grow to 6-8 leaf stages; pre-emergence and post-emergence treatment are conducted with three times repeats. The weeds are placed in the greenhouse after treatment when the leaf without water dried naturally in air, and cultured with normal method. According to the inhibited condition or dying condition of the weeds, after treatment 30 days, visual inspection of the control effect is conducted (see Table 2-Table 7).
(§4) A herbicide formulation preparing method: all test samples are technical dissolved by a mixed solvent of acetone and dimethylformyl (1:2, V/V) firstly; then 1‰ of Tween 80 water is used to prepare mother liquor of a certain concentration; and then processing solutions of different doses are prepared according to test schemes.
(§5) The present invention adopts a Gowing method for evaluating the combined action of the proposed composition.
(§6) X—the weed control effect when the dosage of the component A of the herbicide is P;
(§7) Y—the weed control effect when the dosage of the component B of the herbicide is Q;
(§8) E0—the theoretical control effect when the dosage of the component A of the herbicide is P+the theoretical control effect when the dosage of the component B of the herbicide is Q;
(§9) E—the measured control effect after the component A of the herbicide and the component B of the herbicide are mixed in the above proportion.
(§10) When E−E0>10%, the synergy is achieved; when E−E0<−10%, antagonism is achieved; when the value of E−E0 is between ±10%, the addition effect is achieved.

[2] = system: piemarker; experiment: as above; assay type: in vivo; conditions: single component
Experimental: as §1, §2, §3, §4, §5, §6, §7, §8, §9, §10

[3] = dose 7.5 ga.i./hm^2, visual inspection 30 days after treatment
[4] = dose 30 ga.i./hm^2, visual inspection 30 days after treatment
[5] = dose 120 ga.i./hm^2, visual inspection 30 days after treatment

`c1cc[n+]2c(c1)-c1cccc[n+]1CC2` [Diquat, diquat] was tested, and the “Measured Value E (weed control effect)” value [1, 3] was 30% and 20%, the “Measured Value E (weed control effect)” value [1, 4] was 50% and 45% and 40% and the “Measured Value E (weed control effect)” value [1, 5] was 65% and 60% and 55%. The “Measured Value E (weed control effect)” value [2, 3] was 20% and 15% and 30%, the “Measured Value E (weed control effect)” value [2, 4] was 50% and 55% and 45% and the “Measured Value E (weed control effect)” value [2, 5] was 60% and 65% and 55%.
